Calls of active or inactive are those of the source. No cut-off for these calls is given here.

The subject of data set [1] is ECa-109 cell line. The experiment in a line: Antitumor activity against human ECA109 cells xenografted in Balb/C nude mouse assessed as inhibition of tumor growth at 2 mg/kg, iv followed by irradiation at 100 J/cm2 and measured after 13 days relative to untreated control. It is filed as functional. The note with it: ECa-109, light or radiation study, 312 h, read-out: TGI.

Data set [2] concerns ECa-109 cell line. The experiment in a line: Induction of apoptosis in human ECA109 cells assessed as viable cells level measured 8 hrs after 2 J/cm2 irradiation by Annexin V and propidium iodide staining based flow cytometry (reference value: 99.99%). It is filed as functional.
Data set [3] deals with ECa-109 cell line. The experiment in a line: Cytotoxicity in human ECA109 cells assessed as reduction in cell viability incubated for 24 hrs followed by irradiation with 2.5 J/cm2 red light by MTT assay. It is filed as functional, cell-based. The note with it: ECa-109, light or radiation study.
The subject of data set [4] is ECa-109 cell line. As to the kind of experiment: Antitumor activity against human ECA109 cells xenografted in Balb/C nude mouse assessed as increase in nuclear fission level at 2 mg/kg, iv followed by irradiation at 100 J/cm2 and measured after 13 days by hematoxylin-eosin staining based light microscopy relative to untreated control. Type of data set: functional, organism-based.

Data set [5] deals with ECa-109 cell line. As to the kind of experiment: Induction of apoptosis in human ECA109 cells assessed as necrosis cells level measured 4 hrs after 2 J/cm2 irradiation by Annexin V and propidium iodide staining based flow cytometry. Type of data set: functional.
Data set [6] in a line: Dark toxicity in human ECA109 cells assessed as reduction in cell viability at 0.1 to 0.9 uM incubated for 24 hrs under dark conditions by MTT assay. It is filed as cell-based. The note with it: eca-109, 24 h.
The test system of data set [7] is ECa-109 cell line. As to the kind of experiment: Induction of apoptosis in human ECA109 cells assessed as early apoptosis cells level measured 4 hrs after 2 J/cm2 irradiation by Annexin V and propidium iodide staining based flow cytometry. It is filed as functional.
A short description of data set [8]: Drug accumulation in mitochondria of human ECA109 cells at 0.9 uM incubated for 4 hrs by mitotracker green dye based confocal microscopy. Type of data set: ADME. As to conditions: eca-109, 4 h.
Data set [9] can be described thus: Drug accumulation in endoplasmic reticulum of human ECA109 cells at 0.9 uM incubated for 4 hrs by ER-green[DiOC6(3)] dye based confocal microscopy. It is filed as ADME, subcellular. As to conditions: eca-109, 4 h.
Data set [10] can be described thus: Induction of singlet oxygen generation assessed as singlet oxygen quantum yield by measuring DPBF chemical oxidation in DMF solution incubated for 10 to 30 secs under irradiation by UV-Vis spectrophotometry. It is filed as functional.
Data set [11] has as its system ECa-109 cell line. As to the kind of experiment: Induction of apoptosis in human ECA109 cells assessed as late apoptotic cells level in absence of irradiation by Annexin V and propidium iodide staining based flow cytometry (reference value: 0.01%). Type of data set: cell-based.
Data set [12] in a line: Induction of singlet oxygen generation assessed as DPBF chemical oxidation in DMF solution incubated for 10 to 30 secs under irradiation by UV-Vis spectrophotometry. It is filed as functional. As to conditions: TDE = time-dependent effect.
Data set [13] has as its system ECa-109 cell line. The experiment in a line: Induction of apoptosis in human ECA109 cells assessed as necrotic cells level in absence of irradiation by Annexin V and propidium iodide staining based flow cytometry. Type of data set: cell-based.
The subject of data set [14] is ECa-109 cell line. The experiment in a line: Induction of apoptosis in human ECA109 cells xenografted in Balb/C nude mouse at 2 mg/kg, iv followed by irradiation at 100 J/cm2 and measured after 13 days by TUNEL staining based light microscopy relative to untreated control. Type of data set: functional.
Data set [15] has as its system ECa-109 cell line. As to the kind of experiment: Induction of apoptosis in human ECA109 cells assessed as late apoptosis cells level measured 4 hrs after 2 J/cm2 irradiation by Annexin V and propidium iodide staining based flow cytometry (reference value: 0.01%). Type of data set: functional.
Data set [16] has as its system ECa-109 cell line. The experiment in a line: Cytotoxicity in human ECA109 cells assessed as reduction in cell viability incubated for 24 hrs followed by irradiation with 2 J/cm2 red light by MTT assay. Type of data set: functional, cell-based. The note with it: ECa-109, light or radiation study.
Data set [17] can be described thus: Induction of apoptosis in human ECA109 cells assessed as viable cells level in absence of irradiation by Annexin V and propidium iodide staining based flow cytometry (reference value: 99.99%). It is filed as cell-based, ECa-109. The note with it: read-out: Activity.
Data set [18] can be described thus: Induction of singlet oxygen generation assessed as DPBF chemical oxidation in DMF solution incubated for 10 to 30 secs under irradiation by UV-Vis spectrophotometry relative to mTHPC. It is filed as functional.
Data set [19] has as its system ECa-109 cell line. As to the kind of experiment: Induction of apoptosis in human ECA109 cells assessed as early apoptosis cells level measured 8 hrs after 2 J/cm2 irradiation by Annexin V and propidium iodide staining based flow cytometry. It is filed as functional.
The nature of data set [20]: Drug uptake in human ECA109 cells at 0.5 uM incubated for 2 to 24 hrs by fluorescence spectrometry. As to conditions: eca-109, 0.5 µM, TDE = time-dependent effect. Type of data set: ADME, cell-based.
The subject of data set [21] is ECa-109 cell line. As to the kind of experiment: Antitumor activity against human ECA109 cells xenografted in Balb/C nude mouse assessed as increase in cell differentiation at 2 mg/kg, iv followed by irradiation at 100 J/cm2 and measured after 13 days by hematoxylin-eosin staining based light microscopy relative to untreated control. It is filed as functional, organism-based.

Data set [22] has as its system ECa-109 cell line. The experiment in a line: Induction of apoptosis in human ECA109 cells assessed as viable cells level measured 4 hrs after 2 J/cm2 irradiation by Annexin V and propidium iodide staining based flow cytometry (reference value: 99.99%). It is filed as functional.
Data set [23] can be described thus: Drug accumulation in lysosome of human ECA109 cells at 0.9 uM incubated for 4 hrs by Lyso tracker blue green dye based confocal microscopy. It is filed as ADME, subcellular. The note with it: eca-109, 4 h.
Data set [24] relates to ECa-109 cell line. The experiment in a line: Induction of apoptosis in human ECA109 cells assessed as necrosis cells level measured 2 hrs after 2 J/cm2 irradiation by Annexin V and propidium iodide staining based flow cytometry. Type of data set: functional.
In data set [25] the test system is ECa-109 cell line. As to the kind of experiment: Cytotoxicity in human ECA109 cells assessed as reduction in cell viability incubated for 24 hrs followed by irradiation with 1 J/cm2 red light by MTT assay. Type of data set: functional, cell-based. The note with it: ECa-109, light or radiation study.
In data set [26] the test system is ECa-109 cell line. The experiment in a line: Cytotoxicity in human ECA109 cells assessed as reduction in cell viability incubated for 24 hrs followed by irradiation with 1.5 J/cm2 red light by MTT assay. It is filed as functional, cell-based. As to conditions: ECa-109, light or radiation study.
Data set [27] deals with ECa-109 cell line. The experiment in a line: Induction of apoptosis in human ECA109 cells assessed as late apoptosis cells level measured 2 hrs after 2 J/cm2 irradiation by Annexin V and propidium iodide staining based flow cytometry (reference value: 0.01%). Type of data set: functional.
Data set [28] has as its system ECa-109 cell line. As to the kind of experiment: Induction of apoptosis in human ECA109 cells assessed as early apoptotic cells level in absence of irradiation by Annexin V and propidium iodide staining based flow cytometry. It is filed as cell-based.
Data set [29] concerns ECa-109 cell line. The experiment in a line: Induction of apoptosis in human ECA109 cells assessed as necrosis cells level measured 8 hrs after 2 J/cm2 irradiation by Annexin V and propidium iodide staining based flow cytometry. Type of data set: functional.
The test system of data set [30] is ECa-109 cell line. The experiment in a line: Induction of apoptosis in human ECA109 cells assessed as early apoptosis cells level measured 2 hrs after 2 J/cm2 irradiation by Annexin V and propidium iodide staining based flow cytometry. It is filed as functional.
Data set [31] has as its system ECa-109 cell line. As to the kind of experiment: Induction of apoptosis in human ECA109 cells assessed as viable cells level measured 2 hrs after 2 J/cm2 irradiation by Annexin V and propidium iodide staining based flow cytometry (reference value: 99.99%). Type of data set: functional.
Data set [32] relates to ECa-109 cell line. The experiment in a line: Induction of apoptosis in human ECA109 cells assessed as reduction in pro-caspase-3 activity measured 2 hrs after 2 J/cm2 irradiation. Type of data set: functional, cell-based.
Data set [33] concerns ECa-109 cell line. The experiment in a line: Cytotoxicity in human ECA109 cells assessed as reduction in cell viability incubated for 24 hrs followed by irradiation with 0.5 to 2.5 J/cm2 red light by MTT assay. Type of data set: functional, cell-based.
Data set [34] deals with ECa-109 cell line. The experiment in a line: Cytotoxicity in human ECA109 cells assessed as reduction in cell viability incubated for 24 hrs followed by irradiation with 0.5 J/cm2 red light by MTT assay. Type of data set: functional, cell-based. The note with it: ECa-109, light or radiation study.
The subject of data set [35] is ECa-109 cell line. As to the kind of experiment: Induction of apoptosis in human ECA109 cells assessed as late apoptosis cells level measured 8 hrs after 2 J/cm2 irradiation by Annexin V and propidium iodide staining based flow cytometry (reference value: 0.01%). Type of data set: functional.
Data set [36] relates to ECa-109 cell line. The experiment in a line: Antitumor activity against human ECA109 cells xenografted in Balb/C nude mouse assessed as increase in megakaryocytes level at 2 mg/kg, iv followed by irradiation at 100 J/cm2 and measured after 13 days by hematoxylin-eosin staining based light microscopy relative to untreated control. Type of data set: functional, organism-based.

Data set [37] deals with ECa-109 cell line. As to the kind of experiment: Antitumor activity against human ECA109 cells xenografted in Balb/C nude mouse assessed as reduction in tumor cell per unit area at 2 mg/kg, iv followed by irradiation at 100 J/cm2 and measured after 13 days by hematoxylin-eosin staining based light microscopy relative to untreated control. Type of data set: functional, organism-based.

For the compound `Oc1cccc(-c2c3nc(c(-c4cccc(O)c4)c4ccc([nH]4)c(-c4cccc(O)c4)c4nc(c(-c5cccc(O)c5)c5ccc2[nH]5)CC4)C=C3)c1` [TEMOPORFIN], the inhibition in vivo at 2 mg/kg in data set [1] worked out at 79%.

With `C=Cc1c(C)c2cc3nc(c(CC(=O)OC)c4[nH]c(cc5nc(cc1[nH]2)C(C)=C5CC)c(C)c4C(=O)NCCc1ccccn1)[C@@H](CCC(=O)OC)[C@@H]3C`, the Activity in data set [2] was 4.92%; in [5] it was 7.87%; in data set [6], “Non-Toxic”; in data set [7], 8.1%; in [11], 4.7%; in data set [12] it was “Tde”. Moreover, the Activity in data set [13] came to 2.3%; in [14] it was 40%; in data set [15] it was 70.93%; in data set [19], 6.01%; in data set [22], 13.1%; in data set [24], 9.33%. The Activity in data set [27] is 68.34%; in [28] it was 3.16%; in data set [29] it was 3.29%; in data set [30], 7.15%; in [31], 15.19%; in [33], “Dose-dependent effect”. In addition, in [35], the Activity amounted to 85.78%. For the same compound, the IC50 was 0.3 µM in data set [3]; 0.38 µM in [16]; 0.64 µM in data set [25]; 0.43 µM in [26]; 1.33 µM in data set [34]. Also, the inhibition in vivo at 2 mg/kg in [1] amounted to 92%. Further, the result in [4], in data set [21], in [32], in data set [36] and in [37] was Active. The Drug uptake entry was “Active” in data set [8], “Active” in data set [9], “Tde” in [20] and “Active” in data set [23]. Also, the Activity index in data set [10] was found to be 0.98. In addition, in [17], the viability was found to be 89.8%. Further, the fold change (FC) in [18] was determined as 0.0193.

The record behind these values is ChEMBL document CHEMBL4118136, “The photodynamic activity of 131-[2'-(2-pyridyl)ethylamine] chlorin e6 photosensitizer in human esophageal cancer” (Bioorg Med Chem Lett, 2018).
